Consider 4 compounds from patent US8211881B2, “Cholesterol-mimetic pyrene probes” (Centre National de la Recherche Scientifique, priority 2005, dated 2012).

Data set [1] has as its target T1, GPCR μ with opioids (hMOP) (Homo sapiens, UniProt P35372).
T1 construct: expressed in transfected cells; host or cells: SH-SY5Y neuroblastoma cells
As to the kind of experiment: Fluorescence spectra of SH-SY5Y cells overexpressing hMOP, marked with pyrene-ketone-cholesterol (4), before and after agonist addition (FIG. 2). Format: cell-based. Particulars: agonist under saturation conditions, probe of formula (4).
Experimental: Confluence cells immobilised on a 22 by 22 mm silica slice are placed in a 35 mm diameter Petri dish and covered by 1.2 ml of a 0.22 μm-filtered solution and composed of 15 ml of base medium (DMEM with 1% foetal calf serum) plus 1 ml solution of methyl-β-cyclodextrins loaded with Pyrene cholesterol (4) or (7). The mixture is left to incubate at 37° C. for between 1 and 15 mn according to the desired marking rate. Then the medium is replaced 4 times with 1.2 ml of PBS Ca++Mg++.
The images are produced with a Zeiss axioplanll microscope using a 63× oil-immersion objective (Plan-Neofluoar, NA=1.4) and a CCD camera (C2400-75i Hamamatsu) equipped with the Argus 20 system (Hamamatsu) which removes the background noise directly on the preparation corresponding to the following mounting: after the slice carrying the marked cells has been turned upside-down on a slide provided with cross-pieces, a chamber the volume of which is close to 120 μl is thus produced and filled with DMEM medium . […]
The fluorescence spectra are produced on these mountings on an AMINCO 500 spectrofluorimeter. The excitation wavelength is 335 nm bp 5 nm, the emission spectrum being recorded after 370 nm bp 4 nm and with a resolution of 0.25 nm per point.

For data set [2] the following is noted: in DMPC; cited from earlier work.

A word on the melting point: it is the temperature of the solid-liquid transition.

Molecules are shown by their SMILES.

T1 sequence (P35372 whole entry): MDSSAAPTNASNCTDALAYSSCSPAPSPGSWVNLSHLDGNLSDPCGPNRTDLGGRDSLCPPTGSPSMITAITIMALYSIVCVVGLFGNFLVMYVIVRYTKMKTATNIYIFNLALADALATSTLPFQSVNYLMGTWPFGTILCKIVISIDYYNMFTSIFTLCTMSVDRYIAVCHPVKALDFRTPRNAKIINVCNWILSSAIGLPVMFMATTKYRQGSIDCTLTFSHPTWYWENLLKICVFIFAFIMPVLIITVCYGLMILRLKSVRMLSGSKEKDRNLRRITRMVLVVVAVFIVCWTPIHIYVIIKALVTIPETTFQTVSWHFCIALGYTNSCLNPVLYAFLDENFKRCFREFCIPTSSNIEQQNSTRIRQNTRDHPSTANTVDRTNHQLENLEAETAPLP

For the compound `C=C(CCc1ccc2ccc3cccc4ccc1c2c34)[C@H]1CC[C@H]2[C@@H]3CC=C4C[C@@H](O)CC[C@]4(C)[C@H]3CC[C@]12C`, the melting point turned out to be 84 °C.

In the case of `C[C@@H](NC(=O)[C@@H](N)Cc1ccc(O)cc1)C(=O)NCC(=O)N(C)[C@@H](Cc1ccccc1)C(=O)NCCO` [DAMGO], the “change of membrane polarity (band I1 intensity, I3 and I4 unchanged) after addition of the agonist” value in data set [1] is listed as “reduction in the membrane polarity”.

As for `CC(C)CCC[C@@H](C)[C@H]1CC[C@H]2[C@@H]3CC=C4C[C@@H](O)CC[C@]4(C)[C@H]3CC[C@]12C` [cholesterol], the “solubility in membrane lipids” value in data set [2] is given as 68%.

In turn, `C[C@]12CC[C@H]3[C@@H](CC=C4C[C@@H](O)CC[C@@]43C)[C@@H]1CC[C@@H]2C(=O)CCc1ccc2ccc3cccc4ccc1c2c34` [pyrene-ketone-cholesterol, 3β-hydroxy-pregn-5-ene-21-(1-methylpyrenyl)-20-one] returned a melting point of 199 °C.
